How the values were obtained:
Format in all cases: physicochemical
[1] = target: T1, PGL-3 condensates (Caenorhabditis elegans, UniProt G5EBV6); experiment: Fluorescence imaging of dye partitioning in PGL-3 condensates (I-in, I-out); conditions: for Intensity Inside with Dye Average / Intensity Inside with Dye 1 / Intensity Inside with Dye 2 / Intensity Inside with Dye 3 / Intensity Inside Dye-No Dye: inside PGL-3 condensate; for Intensity Inside with Dye Average / Intensity Inside with Dye 1 / Intensity Inside with Dye 2 / Intensity Inside with Dye 3 / Intensity Outside with Dye Average / Intensity Outside with Dye 1 / Intensity Outside with Dye 2 / Intensity Outside with Dye 3: 5 μM protein; for Intensity Inside with Dye Average / Intensity Outside with Dye Average: average of three images; for Intensity Inside with Dye Average / Intensity Inside with Dye 1 / Intensity Inside with Dye 2 / Intensity Inside with Dye 3 / Intensity Inside Dye-No Dye / Intensity Outside with Dye Average / Intensity Outside with Dye 1 / Intensity Outside with Dye 2 / Intensity Outside with Dye 3 / Intensity Outside (Dye-No Dye): one day of experiments; for Intensity Inside with Dye 1 / Intensity Outside with Dye 1: image 1; for Intensity Inside with Dye 2 / Intensity Outside with Dye 2: image 2; for Intensity Inside with Dye 3 / Intensity Outside with Dye 3: image 3; for Intensity Inside Dye-No Dye / Intensity Outside (Dye-No Dye): background corrected; for Intensity Outside with Dye Average / Intensity Outside with Dye 1 / Intensity Outside with Dye 2 / Intensity Outside with Dye 3 / Intensity Outside (Dye-No Dye): outside PGL-3 condensate
T1 sequence (G5EBV6 1-693): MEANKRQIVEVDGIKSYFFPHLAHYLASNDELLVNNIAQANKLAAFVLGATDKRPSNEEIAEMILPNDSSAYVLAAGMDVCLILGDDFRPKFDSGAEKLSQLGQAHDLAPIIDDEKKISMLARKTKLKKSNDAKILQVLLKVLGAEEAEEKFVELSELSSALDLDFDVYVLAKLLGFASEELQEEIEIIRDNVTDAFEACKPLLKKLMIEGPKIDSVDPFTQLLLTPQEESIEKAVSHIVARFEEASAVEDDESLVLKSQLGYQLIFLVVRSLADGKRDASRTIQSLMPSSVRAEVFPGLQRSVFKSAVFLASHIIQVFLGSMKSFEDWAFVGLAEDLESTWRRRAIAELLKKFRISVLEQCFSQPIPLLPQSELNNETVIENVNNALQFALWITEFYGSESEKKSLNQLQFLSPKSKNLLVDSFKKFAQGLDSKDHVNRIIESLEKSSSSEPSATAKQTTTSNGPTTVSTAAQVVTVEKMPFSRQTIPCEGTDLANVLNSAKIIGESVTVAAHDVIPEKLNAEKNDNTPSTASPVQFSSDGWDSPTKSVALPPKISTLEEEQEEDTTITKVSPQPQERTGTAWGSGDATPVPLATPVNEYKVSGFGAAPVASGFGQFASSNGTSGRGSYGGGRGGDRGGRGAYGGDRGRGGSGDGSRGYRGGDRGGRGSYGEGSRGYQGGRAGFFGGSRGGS
Procedure: (§1) All dye-stocks were stored as 1 mM solutions in 100% DMSO. The dyes were dissolved in dilution buffer (DB: 14.7 mM Tris, pH 7.25, 1 mM DTT) to yield 11.765 μM dye in 1.1765 DMSO. 17 μl of dye was distributed in a 384 well non-binding plate (Greiner).
(§2) Either SNAP-tagged FUS protein or tag-free PGL-3 protein was thawed at room temperature for at least 10 min, and the buffer was exchanged to partitioning buffer (PB: 50 mM Tris pH 7.25, 500 mM KCl, 5% Glycerol, and 1 mM DTT). The protein was then diluted to 33.3 μM in PB. 3 μl of protein solution were added to the 384 well plate to initiate phase separation, yielding 20 μl of 5 μM protein and 10 μM dye in 75 mM KCl, 0.75% Glycerol, 20 mM Tris, 1 mM DTT, and 1% DMSO or for no dye control reactions, 20 μl of 5 μM protein in 75 mM KCl, 0.75% Glycerol, 20 mM Tris, 1 mM DTT.
(§3) A spinning disk confocal microscope was used to acquire images of the samples. A 60×oil high-NA objective lens was used to capture the condensate droplets. The laser power was set to 20% and the exposure times were adjusted to the fluorescence emission intensity specific for each dye. Exposure times ranged from 1-1000 ms. Appropriate filter settings were used, matching the excitation and emission spectra of the respective dyes. Three images per well were taken. The background signal of protein droplets in the absence of dye was recorded for all applied imaging conditions.
(§4) Fluorescence intensity was measured inside one exemplary target condensate (Intensity inside, I-in) per image and in a region next to the exemplary target condensate (Intensity outside, I-out) by hand using the image analysis software Fiji. An example depicting the regions measured is shown FIG. 2A. Three I-in and three I-out values were measured in total for each dye in each experiment and were averaged. The measured I-in and I-out values for FUS-SNAP condensates on one day of experiments are shown in Table 2 and Table 3, respectively. The measured I-in and I-out values for PGL-3 condensates on one day of experiments are shown in Table 4 and Table 5, respectively. All values were background corrected, based on the background images (no dye controls) taken with the same microscope conditions.
(§5) The ratios of the average intensity measured in the target condensates and outside of the target condensates were calculated by dividing I-in by I-out, although dividing I-out by I-in could also have been used. The I-in:I-out ratios determined from the two different days of experiments were then averaged. The average I-in:I-out ratios for FUS-SNAP condensates are shown in FIG. 3 and the average I-in:I-out ratios for PGL-3 condensates are shown in FIG. 4. The standard deviation between the two experiments is represented by the error bars in FIG. 3 and FIG. 4.

[2] = target: T2, FUS-SNAP condensates (Homo sapiens, UniProt P35637); experiment: Fluorescence imaging of dye partitioning in FUS-SNAP condensates (I-in, I-out); conditions: for Ratio of intensity inside:outside FUS-SNAP Condensates Day 1 / Ratio of intensity inside:outside FUS-SNAP Condensates Day 2 / Ratio of intensity inside:outside FUS-SNAP Condensates Average: I-in:I-out; for Ratio of intensity inside:outside FUS-SNAP Condensates Day 1 / Ratio of intensity inside:outside FUS-SNAP Condensates Day 2 / Ratio of intensity inside:outside FUS-SNAP Condensates Average / Intensity Inside with Dye Average / Intensity Inside with Dye 1 / Intensity Inside with Dye 2 / Intensity Inside with Dye 3 / Intensity Outside with Dye Average / Intensity Outside with Dye 1 / Intensity Outside with Dye 2 / Intensity Outside with Dye 3: 10 μM dye; for Ratio of intensity inside:outside FUS-SNAP Condensates Average: average of two days; for Intensity Inside with Dye Average / Intensity Inside with Dye 1 / Intensity Inside with Dye 2 / Intensity Inside with Dye 3 / Intensity Inside Dye-No Dye: inside FUS-SNAP condensate; for Intensity Inside with Dye Average / Intensity Inside with Dye 1 / Intensity Inside with Dye 2 / Intensity Inside with Dye 3 / Intensity Outside with Dye Average / Intensity Outside with Dye 1 / Intensity Outside with Dye 2 / Intensity Outside with Dye 3: 5 μM protein; for Intensity Inside with Dye Average / Intensity Outside with Dye Average: average of three images; for Intensity Inside with Dye Average / Intensity Inside with Dye 1 / Intensity Inside with Dye 2 / Intensity Inside with Dye 3 / Intensity Inside Dye-No Dye / Intensity Outside with Dye Average / Intensity Outside with Dye 1 / Intensity Outside with Dye 2 / Intensity Outside with Dye 3 / Intensity Outside (Dye-No Dye): one day of experiments; for Intensity Inside with Dye 1 / Intensity Outside with Dye 1: image 1; for Intensity Inside with Dye 2 / Intensity Outside with Dye 2: image 2; for Intensity Inside with Dye 3 / Intensity Outside with Dye 3: image 3; for Intensity Inside Dye-No Dye / Intensity Outside (Dye-No Dye): background corrected; for Intensity Outside with Dye Average / Intensity Outside with Dye 1 / Intensity Outside with Dye 2 / Intensity Outside with Dye 3 / Intensity Outside (Dye-No Dye): outside FUS-SNAP condensate
T2 sequence (P35637 1-526): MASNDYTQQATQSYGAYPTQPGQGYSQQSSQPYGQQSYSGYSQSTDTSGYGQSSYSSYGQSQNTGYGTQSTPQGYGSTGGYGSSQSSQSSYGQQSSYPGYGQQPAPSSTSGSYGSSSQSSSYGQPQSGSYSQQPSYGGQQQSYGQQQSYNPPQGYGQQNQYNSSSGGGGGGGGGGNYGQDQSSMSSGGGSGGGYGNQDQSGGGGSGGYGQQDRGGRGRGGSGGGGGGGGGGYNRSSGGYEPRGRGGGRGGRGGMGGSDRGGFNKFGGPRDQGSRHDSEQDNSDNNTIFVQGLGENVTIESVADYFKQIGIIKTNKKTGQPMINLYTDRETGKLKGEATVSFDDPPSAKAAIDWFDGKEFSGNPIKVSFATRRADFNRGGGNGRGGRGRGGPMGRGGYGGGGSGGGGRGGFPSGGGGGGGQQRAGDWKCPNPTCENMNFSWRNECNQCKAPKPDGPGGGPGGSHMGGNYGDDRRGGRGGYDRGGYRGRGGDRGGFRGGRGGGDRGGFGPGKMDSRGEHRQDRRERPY
Procedure: as §1, §2, §3, §4, §5

[3] = test system: FUS-SNAP condensates versus PGL-3 condensates; experiment: Condensate preference: ratio of FUS-SNAP I-in:I-out to PGL-3 I-in:I-out; conditions: average FUS-SNAP I-in:I-out divided by average PGL-3 I-in:I-out
Procedure: as §5

Compound | Ratio of intensity inside:outside PGL-3 Condensates Day 2 ([1]; I-in:I-out, 10 μM dye) | Intensity Inside with Dye Average ([1]; 10 μM dye) | Intensity Inside with Dye 1 ([1]; 10 μM dye) | Intensity Inside with Dye 2 ([1]; 10 μM dye) | Intensity Inside with Dye 3 ([1]; 10 μM dye) | Intensity Inside Dye-No Dye [1] | Intensity Outside with Dye Average ([1]; 10 μM dye) | Intensity Outside with Dye 1 ([1]; 10 μM dye) | Intensity Outside with Dye 2 ([1]; 10 μM dye) | Intensity Outside with Dye 3 ([1]; 10 μM dye) | Intensity Outside (Dye-No Dye) [1] | Ratio of intensity inside:outside FUS-SNAP Condensates Day 1 [2] | Intensity Inside with Dye Average [2] | Intensity Inside with Dye 1 [2] | Intensity Inside with Dye 2 [2] | Intensity Inside with Dye 3 [2] | Intensity Inside Dye-No Dye [2] | Intensity Outside with Dye Average [2] | Intensity Outside with Dye 1 [2] | Intensity Outside with Dye 2 [2] | other results
N=C(N)c1ccc(-c2cc3ccc(C(=N)N)cc3[nH]2)cc1 [Dye 1, DAPI] | 3.3 | 212.6 | 211.3 | 211.0 | 215.7 | 91.9 | 168.8 | 173.1 | 168.4 | 164.9 | 48.4 | 4.6 | 622.4 | 638.5 | 599.9 | 628.8 | 502.4 | 228.6 | 233.9 | 233.3 | Ratio of intensity inside:outside PGL-3 Condensates Day 1 ([1]; I-in:I-out, 10 μM dye): 1.9; Ratio of intensity inside:outside PGL-3 Condensates Average ([1]; I-in:I-out, average of two days, 10 μM dye): 2.6; Ratio of intensity inside:outside FUS-SNAP Condensates Day 2 [2]: 3.3; Ratio of intensity inside:outside FUS-SNAP Condensates Average [2]: 4.0; Intensity Outside with Dye 3 [2]: 218.7; Intensity Outside (Dye-No Dye) [2]: 108.6; Ratio of FUS-SNAP:PGL-3 [3]: 1.5
CC(=O)Oc1ccc2c(c1)Oc1cc(OC(C)=O)ccc1C21OC(=O)c2ccccc21 [Dye 9, Fluorescein diacetate] | −0.4 | 828.6 | 824.1 | 801.2 | 860.4 | 231.3 | 269.2 | 269.6 | 264.9 | 273.2 | 106.3 | 1.9 | 6034.1 | 5836.4 | 6036.1 | 6229.9 | 1821.5 | 1485.0 | 1487.5 | 1414.8 | Ratio of intensity inside:outside PGL-3 Condensates Day 1 ([1]; I-in:I-out, 10 μM dye): 2.2; Ratio of intensity inside:outside FUS-SNAP Condensates Day 2 [2]: 1.5; Ratio of intensity inside:outside FUS-SNAP Condensates Average [2]: 1.7; Intensity Outside with Dye 3 [2]: 1552.6; Intensity Outside (Dye-No Dye) [2]: 934.8
O=C1OC2(c3ccc(O[C@@H]4O[C@H](CO)[C@H](O)[C@H](O)[C@H]4O)cc3Oc3cc(O[C@@H]4O[C@H](CO)[C@H](O)[C@H](O)[C@H]4O)ccc32)c2ccccc21 [Dye 12, Fluorescein di(β-D-galacto-pyranoside)] | 1.9 | 690.1 | 689.4 | 656.9 | 723.9 | 92.8 | 206.4 | 208.4 | 203.2 | 207.7 | 43.5 | −2.3 | 478.0 | 456.2 | 508.6 | 469.3 | −19.5 | 148.6 | 150.1 | 142.8 | Ratio of intensity inside:outside PGL-3 Condensates Day 1 ([1]; I-in:I-out, 10 μM dye): 2.1; Intensity Outside with Dye 3 [2]: 152.9; Intensity Outside (Dye-No Dye) [2]: 8.5
CC/N=c1/cc2oc3cc(NCC)c(C)cc3c(-c3ccccc3C(=O)NCCOCCOCCN)c-2cc1C.O=C(O)C(F)(F)F [Dye 15, N-(8-Amino-3,6-dioxaoctyl)-rhodamine 6G-amide bis(trifluoroacetate)] | 3.3 | 6487.9 | 6831.9 | 6829.0 | 5802.8 | 1228.1 | 1263.8 | 1289.1 | 1266.2 | 1236.3 | 555.7 | 70.8 | 3480.0 | 3084.2 | 3756.7 | 3599.3 | −732.6 | 539.8 | 559.0 | 527.6 | Intensity Outside with Dye 3 [2]: 532.7; Intensity Outside (Dye-No Dye) [2]: −10.3

From patent US12174198B2, “Methods of characterizing condensate-associated characteristics of compounds and uses thereof” (Dewpoint Therapeutics, Inc., priority 2019, dated 2024)
